Measurements published in patent US20210030646A1, “AN ANTIMICROBIAL COMPOSITION COMPRISING ESSENTIAL OIL AND ANTIMICROBIAL LIPID” (Conopco, Inc., d/b/a UNILEVER, priority 2017, published 2021).

System: P. acnes (ATCC 6919)
Experiment: ΣFIC assay against P. acnes (checkerboard MIC, alamar blue)
Format: cell-based, Propionibacterium acne (P. acnes)
Conditions: P. acnes ATCC 6919 in LB, anaerobic 37° C. 50 hours, lowest concentration giving complete growth inhibition; for MIC: Cutibacterium acnes, ATCC6919, single active alone, read-out: MIC (Minimum Inhibition Concentration)
Protocol: Synergistic interaction between the essential oil active and the AML compounds was determined using the ΣFIC assay against P. acnes. A brief description of the method is given below.
Methods: ΣFIC Assay Against P. acnes
P. acnes (ATCC 6919) is inoculated on Reinforced Clostridial Medium Agar plate (RCMA, solution A) and cultured anaerobically in an anaerobic jar at 37° C. for 72 to 96 hours. A single colony was cultured into Reinforced Clostridial Medium (RCM, solution B) and incubated anaerobically at 37° C. for 72 to 96 hours. Final cell density is adjusted to around 5×10^7 cells/ml by diluting using RCM. Then the inoculum is further diluted 1:1000 into Luria-Bertani medium (LB, solution C) to get around 5*10^4 cell/ml.
Essential oil active was serially diluted (2-fold) to prepare in a range of 10 to 10,000 ppm in the LB growth medium. The AML compound was serially diluted (2-fold) to prepare in a range of 15.6 to 1000 ppm for sapienic acid, and palmitoleic acid; and 2-125 ppm for other AMLs in the LB growth medium.
Binary combinations of essential oil and AML compound were prepared in 96-well plate by mixing 20 μl of essential oil solution with 20 μl of AML compound. The solution in each well were further mixed with 160 μl of P. acnes in LB. The final cell density in the testing plate is around 4*10^4 cell/ml, and the final concentration of actives in each well of the 96-well plate were shown below.
The fatty acid AML sapienic acid and palmitoleic acid compound concentrations (in ppm): 100, 50, 25, 12.5, 6.25, 3.13, 1.56, and 0. The sphingosine AML compound concentrations (in ppm): 12.5, 6.3, 3.1, 1.6, 0.8, 0.4, 0.2 and 0.
The plate was incubated anaerobically at 37° C. for 50 hours. Then 20 μl of alamar blue (0.01%) was added into each well with a further incubation aerobically for two to three days to observe the color change. Red color indicates microbial growth and the non-changing blue color indicates no growth. In addition, it was also confirmed that the testing compound alone will not cause color change of alamar blue with a control mixture without adding microbes.
The MIC is defined as the absolute lowest concentration of active that provides complete microbial growth inhibition as indicated by the blue color of alamar blue under the tested condition.
The differing behaviour of inhibitory antimicrobials in isolation and mixtures have been widely explored using the concept of the Fractional Concentration (FC) and Fractional Inhibitory Concentration (FIC). The parameter can be defined as follows: […]
These relationships can be expressed mathematically by summing the fractional MIC values for all the components present in the mixture to give the “fractional inhibition index”. There is no consistent approach in the academic or patent literature in defining precise limiting ΣFIC values that differentiate synergy from additivity or antagonism. In this study, we have adopted a liberal approach defining any binary mixture with ΣFIC<0.9 as showing evidence of synergistic behavior.
ΣFIC=FIC (component 1)+FIC (component 2)
ΣFIC=1 corresponds to additive microbial activity
ΣFIC>1 corresponds to antagonistic microbial activity
ΣFIC<0.9 corresponds to synergistic microbial activity
Based on the concentration range of the essential oil actives (0 to 1000 ppm) and the AML compound (0 to 100 ppm) at which the experiments were carried out, the ΣFIC of the combinations is given below in Table-1.

Row | MIC (Minimum Inhibition Concentration) (single active alone) | MIC | Structure (SMILES)
1 | 0.2 ppm | – | CCCCCCCCCCCCCCC[C@@H](O)[C@@H](N)CO [dihydrosphingosine]
2 | – | 1 µg/mL | CCCCCC/C=C\CCCCCCCC(=O)O [palmitoleic acid]
3 | – | 0.2 µg/mL | CCCCCCCCCCCCCC[C@@H](O)[C@@H](O)[C@@H](N)CO [phytosphingosine]

Continued, compound first:

Row | Structure (SMILES) | MIC (Minimum Inhibition Concentration) (single active alone) | MIC
4 | CCCCCCCCCCCCC/C=C/[C@@H](O)[C@@H](N)CO [sphingosine] | – | 0.4 µg/mL
5 | Cc1ccc(C(C)C)c(O)c1 [thymol] | – | 62.5 µg/mL
